Experiment [1] has as its system TEL-BaF3-FLT3/ITD (stably expressing FLT3/ITD mutant activated kinase). The experiment is described as follows: Cell proliferation, Cell Titer-Glo, TEL-BaF3-FLT3/ITD. Format: cell-based, mouse. The conditions noted are these: incubated for 72 hours, read-out: TEL-BaF3-FLT3/ITD IC50. As for the experimental part:
(§1) The above cell lines were constructed by our laboratory.
(§2) The number of viable cells was determined by quantification of ATP in living cells using the Cell Titer-Glo® (Promega, USA) chemiluminescence cell viability assay kit.

The subject of experiment [2] is U937 (expressing wild-type FLT3 gene). Description: Cell proliferation, Cell Titer-Glo, U937. The experiment is classed as cell-based, human. The conditions noted are these: incubated for 72 hours, read-out: U937 IC50. The procedure: as §1, §2
Experiment [3] has as its target BTK protein kinase (Homo sapiens (Human), UniProt Q06187). The experiment is described as follows: In vitro inhibition activity (enzymatic activity), ADP-Glo, BTK. The experiment is classed as biochemical. As to conditions: ATP 10 μM.
For experiment [4], the system named is MV4-11 (expressing FLT3/ITD mutant gene). Description: Cell proliferation, Cell Titer-Glo, MV4-11. Format: cell-based. As to conditions: Homo sapiens, MV4-11; incubated for 72 hours; read-out: MV4-11 IC50. The procedure: as §1, §2
For experiment [5], the system named is OCI-AML-3 (expressing FLT3 A680V mutant gene). The experiment is described as follows: Cell proliferation, Cell Titer-Glo, OCI-AML3. The experiment is classed as cell-based. The conditions noted are these: Homo sapiens, incubated for 72 hours. As for the experimental part:
as §1, §2

Experiment [6] concerns TEL-BaF3-BLK (stably expressing BLK kinase). Description: Cell proliferation, Cell Titer-Glo, TEL-BaF3-BLK. The conditions noted are these: Mus musculus; incubated for 72 hours. Format: cell-based. The procedure: as §1, §2
The test system of experiment [7] is MOLM-13 (expressing FLT3/ITD mutant gene and wild-type FLT3 gene). Description: Cell proliferation, Cell Titer-Glo, MOLM-13. The experiment is classed as cell-based. As to conditions: Homo sapiens, MOLM-13; incubated for 72 hours; read-out: MOLM-13 IC50. The procedure: as §1, §2
Experiment [8] concerns TEL-BaF3-BMX (stably expressing BMX kinase). Description: Cell proliferation, Cell Titer-Glo, TEL-BaF3-BMX. Format: cell-based. As to conditions: Mus musculus; incubated for 72 hours. As for the experimental part:
as §1, §2

Experiment [9] relates to pro-B cell BaF3. Description: Cell proliferation, Cell Titer-Glo, BaF3. Format: cell-based. The conditions noted are these: Mus musculus, incubated for 72 hours. The procedure: as §1, §2
The subject of experiment [10] is MOLM-14 (expressing FLT3/ITD mutant gene and wild-type FLT3 gene). Description: Cell proliferation, Cell Titer-Glo, MOLM-14. Format: cell-based. The conditions noted are these: Homo sapiens, MOLM-14; incubated for 72 hours; read-out: MOLM-14 IC50. The procedure:
as §1, §2

For experiment [11], the system named is TPR-MET-BaF3 (stably expressing MET kinase). The experiment is described as follows: Cell proliferation, Cell Titer-Glo, TPR-MET-BaF3. Format: cell-based. As to conditions: Mus musculus; incubated for 72 hours. As for the experimental part: as §1, §2
The test system of experiment [12] is TEL-JAK1-BaF3 (stably expressing JAK1 kinase). Description: Cell proliferation, Cell Titer-Glo, TEL-JAK1-BaF3. The experiment is classed as cell-based. The conditions noted are these: Mus musculus; incubated for 72 hours. The procedure: as §1, §2
Experiment [13] concerns TEL-BaF3-FLT3-D835Y (stably expressing FLT3 D835Y mutant activated kinase). Description: Cell proliferation, Cell Titer-Glo, TEL-BaF3-FLT3-D835Y. The experiment is classed as cell-based. The conditions noted are these: Mus musculus; incubated for 72 hours; read-out: TEL-BaF3-FLT3-D835Y IC50. As for the experimental part: as §1, §2

Where a name gives a salt, the structure may show the parent alone. Read-outs that look alike come from different tables or passages of the source.

Sequence of BTK protein kinase (Q06187 whole entry): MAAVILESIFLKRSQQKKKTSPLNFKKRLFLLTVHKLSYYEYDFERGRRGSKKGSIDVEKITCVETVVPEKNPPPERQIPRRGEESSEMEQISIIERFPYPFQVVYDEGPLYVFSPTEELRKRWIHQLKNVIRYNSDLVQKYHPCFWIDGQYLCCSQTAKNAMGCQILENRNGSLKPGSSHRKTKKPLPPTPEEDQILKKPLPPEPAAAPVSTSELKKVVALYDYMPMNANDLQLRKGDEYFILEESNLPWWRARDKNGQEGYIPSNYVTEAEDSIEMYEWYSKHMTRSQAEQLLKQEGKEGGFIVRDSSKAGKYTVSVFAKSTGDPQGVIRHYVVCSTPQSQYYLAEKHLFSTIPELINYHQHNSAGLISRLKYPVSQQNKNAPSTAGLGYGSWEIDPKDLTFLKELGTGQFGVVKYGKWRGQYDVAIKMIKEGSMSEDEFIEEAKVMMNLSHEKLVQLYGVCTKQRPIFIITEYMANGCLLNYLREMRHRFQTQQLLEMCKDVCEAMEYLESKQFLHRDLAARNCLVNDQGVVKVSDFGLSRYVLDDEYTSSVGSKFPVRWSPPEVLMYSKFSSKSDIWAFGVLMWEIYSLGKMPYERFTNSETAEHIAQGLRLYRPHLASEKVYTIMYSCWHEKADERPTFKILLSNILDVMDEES

For `Nc1ncnc2c1c(-c1ccc(Oc3ccccc3)cc1)nn2[C@@H]1CCCN(C(=O)[C@@H](N)Cc2c[nH]cn2)C1` [Compound 6, (S)-2-amino-1-((R)-3-(4-amino-(4-phenoxyphenyl)-1H-pyrazolo[3,4-d]pyrimidin-1-yl)piperidin-1-yl)-3-(1H-imidazol-4-yl)propan-1-one], the IC50 in [1] (Mus musculus, 72 h) is 1100 nM; in experiment [2] (Homo sapiens, U-937, 72 h), greater than 10000 nM; in experiment [3] it was 128 nM.
For the compound `Nc1ncnc2c1c(-c1ccc(Oc3ccccc3)cc1)nn2[C@@H]1CCCN(C(=O)[C@@H](N)Cc2c[nH]c3ccccc23)C1` [Compound 9, (S)-2-amino-1-((R)-3-(4-amino-(4-phenoxyphenyl)-1H-pyrazolo[3,4-d]pyrimidin-1-yl)piperidin-1-yl)-3-(1H-indol-3-yl)propan-1-one], the IC50 in [2] (Homo sapiens, U-937, 72 h) was greater than 10000 nM; in [3], 49 nM.
On to `CN1CCN(Cc2ccc(C(=O)N3CCC[C@@H](n4nc(-c5ccc(Oc6ccccc6)cc5)c5c(N)ncnc54)C3)cc2)CC1` [Compound 35, (R)-(3-(4-amino-(4-phenoxyphenyl)-1H-pyrazolo[3,4-d]pyrimidin-1-yl)piperidin-1-yl)(4-((4-methylpiperazin-1-yl)methyl)phenyl)methanone], for which the IC50 in experiment [1] (Mus musculus, 72 h) was 70 nM; in experiment [2] (Homo sapiens, U-937, 72 h), 1060 nM; in experiment [4], 280 nM; in experiment [5], 620 nM.
Take `Nc1ncnc2c1c(-c1ccc(Oc3ccccc3)cc1)nn2[C@@H]1CCCN(C(=O)CCCl)C1` [Compound 36]: the IC50 is 150 nM in [1] (Mus musculus, 72 h); 8960 nM in experiment [2] (Homo sapiens, U-937, 72 h); 670 nM in [4]; greater than 10000 nM in experiment [5].
As for `CC(Br)C(=O)N1CCC[C@@H](n2nc(-c3ccc(Oc4ccccc4)cc3)c3c(N)ncnc32)C1` (stereo partly drawn) [Compound 37], the IC50 in experiment [1] (Mus musculus, 72 h) is 150 nM; in experiment [2] (Homo sapiens, U-937, 72 h), greater than 10000 nM; in [4] it was 230 nM; in [5], 1090 nM.
The matching figures for `CC(Cl)C(=O)N1CCC[C@@H](n2nc(-c3ccc(Oc4ccccc4)cc3)c3c(N)ncnc32)C1` (stereo partly drawn) [Compound 38]: 120 nM, 7930 nM, 970 nM and 6510 nM.
Regarding `CN1CCN(CC(=O)N2CCC[C@@H](n3nc(-c4ccc(Oc5ccccc5)cc4)c4c(N)ncnc43)C2)CC1` [Compound 39], the IC50 came out at 93 nM in experiment [1] (Mus musculus, 72 h); 5870 nM in [2] (Homo sapiens, U-937, 72 h); 230 nM in experiment [4]; 4910 nM in experiment [5].
With `CCCS(=O)(=O)N1CCC[C@@H](n2nc(-c3ccc(Oc4ccccc4)cc3)c3c(N)ncnc32)C1` [Compound 40, (R)-3-(4-phenoxyphenyl)-1-(1-(propylsulfonyl)piperidin-3-yl)-1H-pyrazolo[3,4-d]pyrimidin-4-amine], the IC50 in [1] (Mus musculus, 72 h) came to 160 nM; in [2] (Homo sapiens, U-937, 72 h), 4450 nM; in [4] it was 760 nM; in [5], 6610 nM.
Take `CCS(=O)(=O)N1CCC[C@@H](n2nc(-c3ccc(Oc4ccccc4)cc3)c3c(N)ncnc32)C1` [Compound 41, (R)-3-(4-phenoxyphenyl)-1-(1-(ethylsulfonyl)piperidin-3-yl)-1H-pyrazolo[3,4-d]pyrimidin-4-amine]: the IC50 in [1] (Mus musculus, 72 h) turned out to be 140 nM; in experiment [2] (Homo sapiens, U-937, 72 h), 5840 nM; in [4], 570 nM; in experiment [5] it was 4850 nM.
In the case of `Nc1ncnc2c1c(-c1ccc(Oc3ccccc3)cc1)nn2[C@@H]1CCCN(C(=O)C(Cl)(Cl)Cl)C1` [Compound 42], the IC50 was 390 nM in experiment [1] (Mus musculus, 72 h); greater than 10000 nM in experiment [2] (Homo sapiens, U-937, 72 h); 1900 nM in experiment [4]; greater than 10000 nM in experiment [5].
For the compound `CC(O)[C@@H](N)C(=O)N1CCC[C@@H](n2nc(-c3ccc(Oc4ccccc4)cc3)c3c(N)ncnc32)C1` (stereo partly drawn) [Compound 44, (R)-2-amino-1-((R)-3-(4-amino-(4-phenoxyphenyl)-1H-pyrazolo[3,4-d]pyrimidin-1-yl)piperidin-1-yl)-3-hydroxybutanone], the IC50 in experiment [6] was 1000 nM; in experiment [1] (Mus musculus, 72 h) it was 22 nM; in [7], 72 nM; in experiment [2] (Homo sapiens, U-937, 72 h) it was greater than 10000 nM; in experiment [8], 119 nM; in experiment [4], 64 nM. Further, the IC50 in [5] was found to be 3760 nM; in [9], 3900 nM; in experiment [10], 59 nM; in [11] it was 2760 nM; in [3], 53 nM.
For `NCCC(=O)N1CCC[C@@H](n2nc(-c3ccc(Oc4ccccc4)cc3)c3c(N)ncnc32)C1` [Compound 46], the IC50 in experiment [1] (Mus musculus, 72 h) is 390 nM; in [2] (Homo sapiens, U-937, 72 h), 5680 nM; in [4] it was 750 nM; in experiment [5], 8610 nM.
Take `C[C@@H](N)C(=O)N1CCC[C@@H](n2nc(-c3ccc(Oc4ccccc4)cc3)c3c(N)ncnc32)C1` [Compound 47]: the IC50 in experiment [6] was 680 nM; in experiment [1], 22 nM; in [7], 34 nM; in [2], greater than 10000 nM; in experiment [8], 56 nM; in [4] it was 54 nM. Moreover, the IC50 in experiment [5] came out at 2700 nM; in experiment [9], 3800 nM; in experiment [10] it was 48 nM; in experiment [11], 2460 nM; in experiment [3], 27 nM.
Take `Nc1ncnc2c1c(-c1ccc(Oc3ccccc3)cc1)nn2[C@@H]1CCCN(C(=O)[C@H](N)CO)C1` [Compound 48]: the IC50 was 1100 nM in experiment [6]; 46 nM in experiment [1] (Mus musculus, 72 h); 52 nM in experiment [7]; greater than 10000 nM in experiment [2] (Homo sapiens, U-937, 72 h); 61 nM in experiment [4]; 4360 nM in experiment [5]. Besides, the IC50 was 6500 nM in experiment [9], 79 nM in experiment [10], 3520 nM in [11] and 28 nM in experiment [3].
Take `CC(C)(C)CC(=O)N1CCC[C@@H](n2nc(-c3ccc(Oc4ccccc4)cc3)c3c(N)ncnc32)C1` [Compound 49]: the IC50 in [1] (Mus musculus, 72 h) was 460 nM; in experiment [2] (Homo sapiens, U-937, 72 h), greater than 10000 nM; in [4] it was 2400 nM; in experiment [5], greater than 10000 nM.
As to `CCC(C)(C)C(=O)N1CCC[C@@H](n2nc(-c3ccc(Oc4ccccc4)cc3)c3c(N)ncnc32)C1` [Compound 50], the IC50 is 260 nM in experiment [1] (Mus musculus, 72 h); greater than 10000 nM in [2] (Homo sapiens, U-937, 72 h); 2400 nM in experiment [4]; greater than 10000 nM in experiment [5].
For `Nc1ncnc2c1c(-c1ccc(Oc3ccccc3)cc1)nn2[C@@H]1CCCN(C(=O)CC(F)(F)F)C1` [Compound 51], the IC50 is 150 nM in [1] (Mus musculus, 72 h); greater than 10000 nM in experiment [2] (Homo sapiens, U-937, 72 h); 610 nM in experiment [4]; greater than 10000 nM in experiment [5].
For the compound `Nc1ncnc2c1c(-c1ccc(Oc3ccccc3)cc1)nn2[C@@H]1CCCN(C(=O)CC2CC2)C1` [Compound 52], the IC50 in [1] (Mus musculus, 72 h) was 82 nM; in experiment [2] (Homo sapiens, U-937, 72 h), greater than 10000 nM; in experiment [4], 410 nM; in [5], 7890 nM.
`CC(C)CC(=O)N1CCC[C@@H](n2nc(-c3ccc(Oc4ccccc4)cc3)c3c(N)ncnc32)C1` [Compound 53]: the IC50 in experiment [1] (Mus musculus, 72 h) is 770 nM; in experiment [2] (Homo sapiens, U-937, 72 h), greater than 10000 nM; in experiment [4] it was 3400 nM; in [5], greater than 10000 nM.
As for `CCCC(=O)N1CCC[C@@H](n2nc(-c3ccc(Oc4ccccc4)cc3)c3c(N)ncnc32)C1` [Compound 54], the IC50 is 450 nM in experiment [1] (Mus musculus, 72 h); greater than 10000 nM in experiment [2] (Homo sapiens, U-937, 72 h); 1200 nM in experiment [4]; greater than 10000 nM in [5].
For `CC(C)(C)C(=O)N1CCC[C@@H](n2nc(-c3ccc(Oc4ccccc4)cc3)c3c(N)ncnc32)C1` [Compound 55], the IC50 in experiment [1] (Mus musculus, 72 h) was 1800 nM; in experiment [2] (Homo sapiens, U-937, 72 h), greater than 10000 nM; in experiment [4], greater than 10000 nM; in experiment [5], greater than 10000 nM.
For the compound `COC(=O)N1CCC(C(=O)N2CCC[C@@H](n3nc(-c4ccc(Oc5ccccc5)cc4)c4c(N)ncnc43)C2)CC1` [Compound 60, (R)-methyl 4-(3-(4-amino-(4-phenoxyphenyl)-1H-pyrazolo[3,4-d]pyrimidin-1-yl)piperidine-1-carbonyl)piperidin-1-carboxylate], the IC50 stood at 770 nM in experiment [12]; 300 nM in [1] (Mus musculus, 72 h); 1360 nM in experiment [7]; 520 nM in experiment [4]; 4370 nM in [9].
As for `CN[C@H](CC(C)C)C(=O)NC1CCC(n2nc(-c3ccc(Oc4ccccc4)cc3)c3c(N)ncnc32)CC1` (stereo partly drawn) [Compound 92, (R)-N-(4-(4-amino-(4-phenoxyphenyl)-1H-pyrazolo[3,4-d]pyrimidin-1-yl)cyclohexyl)-4-methyl-2-(methylamino)pentanamide hydrochloride], the IC50 is less than 0.3 nM in experiment [1] (Mus musculus, 72 h); less than 0.3 nM in [13]; less than 0.3 nM in experiment [4]; 1900 nM in experiment [9]; less than 0.3 nM in experiment [10].
